“Also recorded” adds a separate entry of the source.
B1: recombinant GDF6 protein: recombinant GDF6 protein added to culture media (protein, UniProt Q6KF10 336-455, looked up)
Growth/differentiation factor …: TAFASRHGKRHGKKSRLRCSKKPLHVNFKELGWDDWIIAPLEYEAYHCEGVCDFPLRSHLEPTNHAIIQTLMNSMDPGSTPPSCCVPTKLTPISILYIDAGNNVVYKQYEDMVVESCGCR

Experiments:
[1] = tested on: A375 melanoma cells; assay: Apoptosis markers: Annexin5 staining and Caspase 3/7 cleavage; format: cell-based, human; conditions: vs shGFP
Procedure: A375 melanoma cells after knockdown of GDF6 or SMAD1 or EGFP were stained for Annexin V and 7-AAD (BD Pharmingen PR Annexin V Apoptosis Detection kit) as per manufacturer's instructions, followed by flow cytometry using a FACSCalibur instrument (BD Biosciences). Caspase3/7 activity was measured using the Caspase-Glo 3/7 assay (Promega) as per manufacturer's instructions.

[2] = tested on: A375 melanoma cells; assay: Clonogenic growth (colony formation) assay; format: cell-based, human; conditions: for colonies in clonogenic growth assay after shRNA treatment: A375 cells, crystal violet staining; for colonies in clonogenic growth assay after shRNA treatment / colonies in clonogenic growth assay, empty vector-transfected cells: vs shGFP; for colonies in clonogenic growth assay, cells expressing SMAD1 phosphomimic (SMAD1DVD): SMAD1DVD cells treated with shRNA; for colonies in clonogenic growth assay, empty vector-transfected cells: empty vector cells treated with shRNA
Procedure: For growth curves 50,000 live cells were seeded per well in a 6-well tissue culture plate on day 0. The numbers of live cells were calculated every day using an automated cell counter (Nexcelom Bioscience Cellometer Auto T4) following standard procedures. All assays were performed with technical replicates. For clonogenic assays, 3,000 live cells were seeded in a 10 cm tissue culture plate. […] ImageJ was used to quantify the number of colonies. In assays with DMH1 treatment, control or DMH1-containing media was replaced every other day. For soft agar assays a 0.5% bottom layer (1:1 with 1% agar and 2X DMEM with 20% FBS) and a 0.3% top layer (1:1 with 0.6% agar and 2× DMEM with 20% FBS) were used. 3,000 live cells per well of a 6-well tissue culture plate were added in the top layer. Media was added initially then replaced every 3 days. After 3 weeks, colonies were stained with nitroblue tetrazolium chloride overnight at 37° C. Once stained, individual wells were photographed, and ImageJ was used to count the number of colonies. All these assays were done in triplicate, and experiments were repeated at least twice. A representative image of each has been shown.

[3] = tested on: A375 melanoma cells; assay: A375 melanoma xenograft in nude mice, tumor volume; format: in vivo, mouse; conditions: for tumor formation (tumor volume) of shRNA-treated cells xenotransplanted into mice: A375 cells treated with shRNA before transplantation, vs shGFP/shEGFP; for xenograft tumor formation, SMAD1 phosphomimic cells: SMAD1DVD cells with GDF6 knocked down; for xenograft tumor formation, empty vector-transfected cells: empty vector cells with GDF6 knocked down
Procedure: An art-accepted model to test for an agent's effects on melanoma is that of using immunocompromised (“nude”) mice which are then injected subcutaneously with melanoma cells, and then concomitant with injection of the cells, sometime after injection, and/or after tumor establishment, the test agent is appropriately administered (e.g., intravenously, peritoneally, orally, etc.). Control and treated animals are monitored in part for tumor growth, tumor stabilization, and tumor regression (see for example, Yang et al. 2010. Cancer Res., 70:5518-5527 and Bollag et al. 2010. Nature. 467:596-599).
All animal protocols were approved by the UMMS Institution Animal Care and Use Committee (A-2016, A-2171). Mice were randomly allocated to individual experimental groups. No blinding was done as animal groups were identified by tagging and cage labeling. Animals were excluded, according to pre-established criteria, if the tumor volume reached >1,000 mm^3; if tumor size or location affected the mobility or general health of animal, the animal was euthanized and excluded from the experiment or the complete experiment was terminated. A375 cells stably expressing an EGFP or GDF6 or SMAD1 shRNA and/or empty vector or GDF6-expressing vector or SMAD1DVD-overexpressing vector were subcutaneously injected into the flanks of 6-8-week-old BALB/c nu/nu female mice (Taconic Farms) to produce orthotopic primary tumor. Primary tumor growth was monitored every 3 days with calipers, and the tumor volume was calculated as described previously (C. Gazin, N. Wajapeyee, S. Gobeil, C. M. Virbasius, M. R. Green, An elaborate pathway required for Ras-mediated epigenetic silencing. Nature 449, 1073-1077 (2007)). For GDF6 knockdown, SMAD1 knockdown and epistasis experiments, 1×10^7 live cells were injected. For GDF6 overexpression experiments, 1×10^6 live cells were injected. For GDF6 overexpression and GDF6 knockdowns, a representative of two independent experiments (n=3 animals per experiment) is shown. For DMH1 drug experiments, 1×10^6 live A375 cells were subcutaneously injected in the flanks of BALB/c nu/nu female mice. Beginning on the day cells were injected, mice were injected intraperitoneally with vehicle 12.5% 2-hydroxypropyl-β-cyclodextrin or 25 mg/kg DMH1 in vehicle every other day. The growth of the tumor was monitored as described above. This experiment was repeated twice and the weighted average of both experiments (n=8 total) is represented.

[4] = tested on: GDF6; assay: Western blot of GDF6 protein after shRNA knockdown; format: cell-based, human; conditions: melanoma cells, vs shGFP control
Procedure: Lentiviral infections were performed as described previously (C. J. Ceol et al., The histone methyltransferase SETDB 1 is recurrently amplified in melanoma and accelerates its onset. (Nature 471, 513-517 (2011)). For stable gene knockdowns, we used pLKO-1 lentiviral vectors to deliver short hairpin sequences (shRNAs) (obtained from the RNAi Consortium (TRC)/Broad Institute through the UMMS RNAi core facility) specific for GDF6 (GDF6.1: TRCN0000141818, target sequence: […] (SEQ ID NO:10); GDF6.2: TRCN0000140097, target sequence: […] (SEQ ID NO:11)) or SMAD1 (SMAD1.1: TRCN0000021781, target sequence: […] (SEQ ID NO:12); SMAD1.2: TRCN0000021782, target sequence: […] (SEQ ID NO:13)) or EGFP (TRCN0000072181, target sequence: […] (SEQ ID NO:14)). Virus was made using a second generation lentiviral packaging system in HEK293T cells and titrated using a p24 ELISA kit (Clontech). Cells were infected with virus at a multiplicity of infection of 2.5 with 8 μg/ml polybrene followed by puromycin selection (2 μm/ml) for 2 days in appropriate media. For overexpression, we used Gateway cloning (Life Technologies) to insert the GDF6 ORF (GE life sciences) or SMAD1DVD ORF (provided by Takenobu Katagiri) into the pLenti CMV Hygro DEST (w117-1) vector (provided by Paul Kaufman). […]

[5] = tested on: SMAD1; assay: Western blot of SMAD1 protein after shRNA knockdown; format: cell-based, human; conditions: melanoma cells, vs shGFP control
Procedure: Lentiviral infections were performed as described previously (C. J. Ceol et al., The histone methyltransferase SETDB 1 is recurrently amplified in melanoma and accelerates its onset. (Nature 471, 513-517 (2011)). For stable gene knockdowns, we used pLKO-1 lentiviral vectors to deliver short hairpin sequences (shRNAs) (obtained from the RNAi Consortium (TRC)/Broad Institute through the UMMS RNAi core facility) specific for GDF6 (GDF6.1: TRCN0000141818, target sequence: […] (SEQ ID NO:10); GDF6.2: TRCN0000140097, target sequence: […] (SEQ ID NO:11)) or SMAD1 (SMAD1.1: TRCN0000021781, target sequence: […] (SEQ ID NO:12); SMAD1.2: TRCN0000021782, target sequence: […] (SEQ ID NO:13)) or EGFP (TRCN0000072181, target sequence: […] (SEQ ID NO:14)). Virus was made using a second generation lentiviral packaging system in HEK293T cells and titrated using a p24 ELISA kit (Clontech). Cells were infected with virus at a multiplicity of infection of 2.5 with 8 μg/ml polybrene followed by puromycin selection (2 μm/ml) for 2 days in appropriate media. For overexpression, we used Gateway cloning (Life Technologies) to insert the GDF6 ORF (GE life sciences) or SMAD1DVD ORF (provided by Takenobu Katagiri) into the pLenti CMV Hygro DEST (w117-1) vector (provided by Paul Kaufman). Infection and monitoring was performed as described (C. J. Ceol et al., The histone methyltransferase SETDB 1 is recurrently amplified in melanoma and accelerates its onset. (Nature 471, 513-517 (2011)), except that selection was done with 300 ug/ml hygromycin for 10 days.
Protein extracts were prepared as previously described (S. D. Epstein L B, Hunte-McDonough B, harris C A, Cytokines: A pratical approach (Balkwill F R., ed). 81-93 (1991)). Extracts were separated on 12% SDS-PAGE gels. Blots were probed with primary antibodies (GDF6 (Sigma PRS4691; 1:1000), phospho-SMAD1/5/8 (Cell Signaling 13820; 1:1000), SMAD1 (Cell Signaling 9743; 1:500), Total SMAD1/5/8 (Santa Cruz sc-6031-R; 1:1000), FLAG (Sigma F3165, 1:2000), GAPDH (Abcam 8245; 1:2000)) overnight at 4° C., washed five times in TBS plus 0.1% Tween (TBST) and then incubated with the appropriate HRP-conjugated secondary antibody (Jackson Labs) for 1 hour at room temperature. Membranes were washed five times in TBST and visualized on autoradiography film after incubating with ECL reagent (Supersignal West Pico or Supersignal West Femto; Thermo Scientific).

[6] = tested on: MeWo melanoma cells; assay: Rescue of GDF6-knockdown melanoma cells by recombinant GDF6 in culture media; format: cell-based, human; conditions: cells treated with shRNAs targeting GDF6
Text: To determine if secreted GDF6 can facilitate the growth of melanoma cells, we knocked down GDF6 using shRNAs and then treated these knockdown cells with recombinant GDF6 protein (FIG. 10).

Molecule | apoptosis (Annexin5 staining, Caspase 3/7 cleavage) [1] | colonies in clonogenic growth assay after shRNA treatment [2] | colonies in clonogenic growth assay, cells expressing SMAD1 phosphomimic (SMAD1DVD) [2] | colonies in clonogenic growth assay, empty vector-transfected cells [2] | tumor formation (tumor volume) of shRNA-treated cells xenotransplanted into mice [3] | xenograft tumor formation, SMAD1 phosphomimic cells [3] | xenograft tumor formation, empty vector-transfected cells [3] | GDF6 protein expression after shRNA treatment [4] | SMAD1 protein expression after shRNA treatment [5] | SMAD1 protein expression after shRNA treatment ([5]; listed as shSMAD1#2) | SMAD1 protein expression after shRNA treatment ([5]; listed as shSMAD1#1) | proliferation/survival of GDF6-knockdown melanoma cells with recombinant GDF6 added to media [6] | proliferation/survival of GDF6-knockdown melanoma cells with recombinant GDF6 added to media ([6]; listed as recombinant GDF6)
shGDF6#1: shRNA targeting GDF6 (SEQ ID NO:1); GDF6.1 TRCN0000141818 targets SEQ ID NO:10 (GCCAAGTGTTACATTGAGCTT; the letters are possibly those of the target site; listed as Homo sapiens) | elevated apoptosis relative to control cells | far fewer colonies | partially restored | few colonies formed | tumors intermediate between the control-treated (shEGFP) cells and the shGDF6#2-treated cells; also recorded: tumor volumes in xenografts decrease with the degree of GDF6 knockdown | tumor formation accelerated after day 15 | only small tumors formed | partially inhibited GDF6 protein expression; also recorded: knockdown of GDF6 protein; also recorded: diminishes expression of GDF6 protein | – | – | – | – | –
shGDF6#2: shRNA targeting GDF6 (SEQ ID NO:2); GDF6.2 TRCN0000140097 targets SEQ ID NO:11 (GTGTCCATGCTCTCAGACAAA; the letters are possibly those of the target site; listed as Homo sapiens) | elevated apoptosis relative to control cells | far fewer colonies | partially restored | few colonies formed | very little tumor formation; also recorded: formed tumors more slowly than control cells; also recorded: tumor volumes in xenografts decrease with the degree of GDF6 knockdown | tumor formation accelerated after day 15 | only small tumors formed | more effective than shGDF6#1; also recorded: knockdown of GDF6 protein; also recorded: diminishes expression of GDF6 protein | – | – | – | – | –
shSMAD1-2: shRNA targeting SMAD1 (SEQ ID NO:5); SMAD1.2 TRCN0000021782 targets SEQ ID NO:13 (GCCGATGGACACAAACATGAT; the letters are possibly those of the target site; listed as Homo sapiens) | elevated apoptosis relative to control cells | far fewer colonies | – | – | – | – | – | – | knockdown of SMAD1 protein | significantly decreased; also recorded: decreases expression of SMAD1 protein | – | – | –
shSMAD1-1: shRNA targeting SMAD1 (SEQ ID NO:4); SMAD1.1 TRCN0000021781 targets SEQ ID NO:12 (CGGTTGCTTATGAGGAACCAA; the letters are possibly those of the target site; listed as Homo sapiens) | elevated apoptosis relative to control cells | far fewer colonies | – | – | formed only very small tumors; also recorded: tumor volumes in xenografts decrease | – | – | – | knockdown of SMAD1 protein | – | significantly decreased; also recorded: decreases expression of SMAD1 protein | – | –
B1 | – | – | – | – | – | – | – | – | – | – | – | rescued the melanoma cells from undergoing GDF6 shRNA-induced apoptosis; also recorded: proliferation of GDF6-knockdown cells was restored | able to sustain their proliferation
